# US7202254B2, “Antibacterial compounds: process for their preparation and pharmaceutical compositions containing them” (Dr. Reddy's Laboratories Limited, priority 2002, dated 2007)
# How the values were obtained:
# [1] = test system: Staphylococcus aureus ATCC 29213; assay: MIC by broth microdilution, Staphylococcus aureus DRCC 035 (S); assay type: cell-based; settings: ATCC29213, DRCC 035 = ATCC 29213, S, Mueller Hinton Broth, overnight 37° C., read-out: Antimicrobial Screening (MIC) Staphylococcus aureus 035 S
# Description: (§1) Minimum Inhibiton Concentrations (MICs) were determined by broth microdilution technique as per the guidelines prescribed om the fifth edition of Approved Standards, NCCLS document M7-A5 Vol 20-No 2, 2000 Villinova, Pa.
# (§2) Initial stock solution of the test compound was prepared in DMSO. Subsequent two fold dilutions were carried out in sterile Mueller Hinton Broth (Difco) (MHB).
# (§3) Frozen cultures stocks were inoculated into 50 mL sterile MHB in 250 mL Erlyn Meyer flasks.
# (§4) Flasks were incubated for 4 to 5 h at 35° C. on a rotary shaker at 150 rpm. Inoculum was prepared by diluting the culture in sterile MHB to obtain a turbidity of 0.5 McFarland standard. This corresponds to 1–2×10^8 CFU/mL. The stock was further diluted in sterile broth to obtain 1–2×10^6 CFU/mL. 50 μl of the above diluted inoculum was added from 1–10 wells. The plates were incubated overnight at 37° C.
# [2] = test system: Escherichia coli ATCC 25922; assay: MIC by broth microdilution, E coli DRCC 18 (S); assay type: cell-based; settings: ATCC25922; DRCC 018 = Escherichia coli ATCC 25922, S; Mueller Hinton Broth, overnight 37° C.; read-out: Antimicrobial Screening (MIC) E coli 18 S
# Description: as §1, §2, §3, §4
# [3] = test system: Staphylococcus aureus ATCC 33591; assay: MIC by broth microdilution, Staphylococcus aureus DRCC 019 (MRSA); assay type: cell-based; settings: DRCC 019 = ATCC 33591, MRSA, Mueller Hinton Broth, overnight 37° C., read-out: Antimicrobial Screening (MIC) Staphylococcus aureus 019 MRSA
# Description: as §1, §2, §3, §4
# [4] = test system: Enterococcus faecium NCTC 12202; assay: MIC by broth microdilution, Enterococcus sp DRCC 154 (R); assay type: cell-based; settings: NCTC12202; DRCC 154 = Enterococcus faecium NCTC 12202, R; Mueller Hinton Broth, overnight 37° C.; read-out: Antimicrobial Screening (MIC) Enterococcus sp 154 R
# Description: as §1, §2, §3, §4
# [5] = test system: Enterococcus faecalis NCTC 12201; assay: MIC by broth microdilution, Enterococcus sp DRCC 153 (R); assay type: cell-based; settings: NCTC12201; DRCC 153 = Enterococcus faecalis NCTC 12201, R; Mueller Hinton Broth, overnight 37° C.; read-out: Antimicrobial Screening (MIC) Enterococcus sp 153 R
# Description: as §1, §2, §3, §4
# [6] = test system: Enterococcus faecalis ATCC 29212; assay: MIC by broth microdilution, Enterococcus sp DRCC 034 (S); assay type: cell-based; settings: ATCC29212; DRCC 034 = Enterococcus faecalis ATCC 29212, S; Mueller Hinton Broth, overnight 37° C.; read-out: Antimicrobial Screening (MIC) Enterococcus sp 034 S
# Description: as §1, §2, §3, §4
# [7] = test system: Staphylococcus aureus ATCC 49951; assay: MIC by broth microdilution, Staphylococcus aureus DRCC 213 (Smith S); assay type: cell-based; settings: ATCC49951, DRCC 213 = ATCC 49951, Smith S, Mueller Hinton Broth, overnight 37° C., read-out: Antimicrobial Screening (MIC) Staphylococcus aureus 213 Smith S
# Description: as §1, §2, §3, §4
MIC [1],MIC [2],melting point,MIC [3],MIC [4],MIC [5],MIC [6],MIC [7],Compound
1 µg/mL,32 µg/mL,190 °C,1 µg/mL,2 µg/mL,1 µg/mL,2 µg/mL,1 µg/mL,"CC(=S)NCc1cn(-c2cc(F)c(N3CCOCC3)c(F)c2)nn1 [Example 51, N-[1-(3,5-Difluoro-4-morpholin-4-yl-phenyl)-1H-[1,2,3]triazol-4-ylmethyl]-thioacetamide]"
2 µg/mL,256 µg/mL,192 °C,2 µg/mL,2 µg/mL,2 µg/mL,2 µg/mL,2 µg/mL,"CC(=S)NCc1cn(-c2ccc(N3CCOCC3)c(F)c2)nn1 [Example 52, N-[1-(3-Fluoro-4-morpholin-4-yl-phenyl)-1H-[1,2,3]triazol-4-ylmethyl]-thioacetamide]"
4 µg/mL,32 µg/mL,135 °C,2 µg/mL,4 µg/mL,4 µg/mL,4 µg/mL,2 µg/mL,"COC(=S)NCc1cn(-c2cc(F)c(N3CCOCC3)c(F)c2)nn1 [Example 54, [1-(3,5-Difluoro-4-morpholin-4-yl-phenyl)-1H-[1,2,3]triazol-4-ylmethyl]-thiocarbamic acid O-methyl ester]"
4 µg/mL,32 µg/mL,148 °C,4 µg/mL,8 µg/mL,4 µg/mL,,4 µg/mL,"COC(=S)NCc1cn(-c2ccc(N3CCOCC3)c(F)c2)nn1 [Example 55, [1-(3-Fluoro-4-morpholin-4-yl-phenyl)-1H-[1,2,3]triazol-4-ylmethyl]-thiocarbamic acid O-methyl ester]"
2 µg/mL,32 µg/mL,127 °C,1 µg/mL,8 µg/mL,2 µg/mL,2 µg/mL,1 µg/mL,"COC(=S)NCc1cn(-c2cc(F)c(N3CCSCC3)c(F)c2)nn1 [Example 56, [1-(3,5-Difluoro-4-thiomorpholin-4-yl-phenyl)-1H-[1,2,3]triazol-4-ylmethyl]-thiocarbamic acid O-methyl ester]"
2 µg/mL,32 µg/mL,162 °C,1 µg/mL,4 µg/mL,2 µg/mL,4 µg/mL,2 µg/mL,"COC(=S)NCc1cn(-c2cc(F)c(N3CCS(=O)(=O)CC3)c(F)c2)nn1 [Example 58, {1-[4-(1,1-Dioxo-1lambda*6*-thiomorpholin-4-yl)-3,5-difluoro-phenyl]-1H-[1,2,3]triazol-4-ylmethyl}-thiocarbamic acid O-methyl ester]"
4 µg/mL,> 32 µg/mL,168 °C,2 µg/mL,8 µg/mL,8 µg/mL,8 µg/mL,2 µg/mL,"COC(=S)NCc1cn(-c2ccc(N3CCSCC3)c(F)c2)nn1 [Example 59, [1-(3-Fluoro-4-thiomorpholin-4-yl-phenyl)-1H-[1,2,3]triazol-4-ylmethyl]-thiocarbamic acid O-methyl ester]"
2 µg/mL,> 32 µg/mL,198 °C,1 µg/mL,4 µg/mL,1 µg/mL,2 µg/mL,1 µg/mL,"COC(=S)NCc1cn(-c2ccc(N3CC[S+]([O-])CC3)c(F)c2)nn1 [Example 60, {1-[3-Fluoro-4-(1-oxo-lambda*4*-thiomorpholin-4-yl)-phenyl]-1H-[1,2,3]triazol-4-ylmethyl}-thiocarbamic acid O-methyl ester]"
4 µg/mL,> 32 µg/mL,184 °C,2 µg/mL,8 µg/mL,2 µg/mL,2 µg/mL,2 µg/mL,"COC(=S)NCc1cn(-c2ccc(N3CCS(=O)(=O)CC3)c(F)c2)nn1 [Example 61, {1-[4-(1,1-Dioxo-1lambda*6*-thiomorpholin-4-yl)-3-fluoro-phenyl]-1H-[1,2,3]triazol-4-ylmethyl}-thiocarbamic acid O-methyl ester]"
1 µg/mL,32 µg/mL,,1 µg/mL,1 µg/mL,1 µg/mL,1 µg/mL,1 µg/mL,"CSC(=S)NCc1cn(-c2ccc(N3CCOCC3)c(F)c2)nn1 [Example 67, [1-(3-Fluoro-4-morpholin-4-yl-phenyl)-1H-[1,2,3]triazol-4-ylmethyl]-dithiocarbamic acid methyl ester]"
